Data on 1 compound can be found in patent US20130253015A1, “Cyclodextrin-Based Microemulsions, and Dermatological Uses Thereof” (PRECISION DERMATOLOGY, INC., priority 2012, published 2013).

A short description of series [1]: Solubility/dispersibility of retinol in Labrasol-HPGCD-water microemulsion systems. It is filed as physicochemical.
From the text: Drug used: 1. Solid Retinol (98%) from Sigma, 2.
Cyclodextrin used: hydroxypropyl-X-cyclodextrin (X=alpha, beta, or gamma).
For series [2] the following is noted: cited from earlier work.

On to `CC1=C(/C=C/C(C)=C/C=C/C(C)=C/CO)C(C)(C)CCC1` [solid retinol, Retinol], for which the “amount of retinol that can be incorporated into cyclodextrin-based microemulsions” value in series [1] (cyclodextrin-based microemulsions of the invention) is given as “greater than 1.0 wt %”. Moreover, the “miscibility in Labrasol-HPGCD-water microemulsion system” value in series [1] (final retinol concentration 1.2%, clear transparent system (FIG. 4(b), 4(c))) is “complete miscibility”. Besides, the miscibility in water entry in series [2] was “immiscible in water”.
